Experimental data: patent US9776987B2, “Amide derivatives for GPR119 agonist” (CHONG KUN DANG PHARMACEUTICAL CORP., priority 2013, dated 2017)

Target: T1, human GPR119 receptor (Homo sapiens, UniProt Q8TDV5)
T1 construct: host or cells: GeneBLAzer T-Rex GPR 119 CHO-K1 DA cells (CHO-K1)
T1 sequence (Q8TDV5 1-335): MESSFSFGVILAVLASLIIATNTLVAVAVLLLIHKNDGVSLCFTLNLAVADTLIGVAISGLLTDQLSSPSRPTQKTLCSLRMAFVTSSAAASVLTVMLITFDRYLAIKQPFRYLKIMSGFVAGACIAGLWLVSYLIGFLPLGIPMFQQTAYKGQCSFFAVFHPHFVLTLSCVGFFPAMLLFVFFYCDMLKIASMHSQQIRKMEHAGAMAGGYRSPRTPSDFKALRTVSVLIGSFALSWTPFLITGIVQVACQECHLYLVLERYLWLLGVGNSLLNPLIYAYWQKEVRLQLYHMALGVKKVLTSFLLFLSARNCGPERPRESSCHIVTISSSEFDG
Test: Activity test for human GPR119 receptor (GeneBLAzer T-Rex GPR 119 CHO-K1 DA cells)
Format: cell-based
Conditions: for EC50: human GPR119 receptor expressing CHO-K1 cells, 5 hours treatment, read-out: hGPR119 EC50; for activity for human GPR119 receptor (in words): judgement on the EC50 values of Table 11
Procedure: 1. Human GPR119 Receptor Cell
As a human GPR119 receptor expression cell for this test, the cell line “GeneBLAzer™ T-Rex GPR 119 CHO-K1 DA cells” that is commercially available from Invitrogen, was used. The cell was incubated in the DMEM media containing 1% dialyzed fetal bovine serum etc. The cell incubator was kept at constant temperature and constant humidity of 37° C., 5% CO2.
2. Activity Test for Human GPR119 Receptor
The human GPR119 receptor expressing cell was used to this test. Each of test compounds was added to be final concentrations of 0.1, 1, 10 μM in 96 well and tested in duplicate. A fixed amount of cell was added to each well of 96 well separately, and then treated with the test compound for 5 hours. After treatment of color development agent for 2 hours, the fluorescence value was determined with plate reader. To the luminous wavelength of control well, which was not treated with the sample, but in which only a vehicle […] was contained, the ratio of the luminous wavelength of test well, which was treated with the sample, was calculated, and then converted to obtain EC50 value.
3. Statistical Processing
All the results were expressed as mean±SD, and each test groups and the control group were compared using student's t-test to adjudge the effects of each test groups.

Row | Compound | EC50 | activity for human GPR119 receptor (in words)
1 | NC(=O)[C@@H]1CCCN1C(=O)c1ccc(-c2ccc(OCC3CCN(CC(F)(F)C(F)(F)F)CC3)cc2)cc1F [Compound 1239, (S)-1-(3-fluoro-4′-((1-(2,2,3,3,3-pentafluoropropyl)piperidin-4-yl)methoxy)biphenylcarbonyl)pyrrolidin-2-carboxamide] | 0.1 nM | –
2 | CCC(F)(CC)CN1CCC(COc2ccc(-c3ccc(C(=O)N4C[C@H](O)C[C@@]4(C)C(N)=O)cc3)nc2)CC1 [Compound 1309, (2S,4R)-1-(4-(5-((1-(2-ethyl-2-fluorobutyl)piperidin-4-yl)methoxy)pyridin-2-yl)benzoyl)-4-hydroxy-2-methylpyrrolidin-2-carboxamide] | 47 nM | –
3 | CC(C)(F)CN1CCC(COc2ccc(-c3ccc(C(=O)N4C[C@H](O)C[C@@]4(C)C(N)=O)c(F)c3)cc2C#N)CC1 [Compound 1276, (2S,4R)-1-(3′-cyano-3-fluoro-4′-((1-(2-fluoro-2-methylpropyl)piperidin-4-yl)methoxy)biphenylcarbonyl)-4-hydroxy-2-methylpyrrolidin-2-carboxamide] | 24 nM | –
4 | CCC(F)(CC)CN1CCC(COc2ccc(-c3ccc(C(=O)N4CCC[C@@]4(C)C(N)=O)c(F)c3)nc2)CC1 [Compound 1299, (S)-1-(4-(5-((1-(2-ethyl-2-fluorobutyl)piperidin-4-yl)methoxy)pyridin-2-yl)-2-fluorobenzoyl)-2-methylpyrrolidin-2-carboxamide] | 9 nM | excellent activity
5 | CCC(F)(CC)CN1CCC(COc2ccc(-c3ccc(C(=O)N4CC[C@H](O)[C@H]4C(N)=O)cc3)c(F)c2)CC1 [Compound 1245, (2S,3S)-1-(4′-((1-(2-ethyl-2-fluorobutyl)piperidin-4-yl)methoxy)-2′-fluorobiphenylcarbonyl)-3-hydroxypyrrolidin-2-carboxamide] | 1 nM | –
6 | NC(=O)[C@@H]1CCCN1C(=O)c1ccc(-c2ccc(OCC3CCN(CC(F)(F)C(F)(F)F)CC3)cn2)cc1F [Compound 1264, (S)-1-(2-fluoro-4-(5-((1-(2,2,3,3,3-pentafluoropropyl)piperidin-4-yl)methoxy)pyridin-2-yl)benzoyl)pyrrolidin-2-carboxamide] | 0.09 nM | excellent activity
7 | CC(C)(CN1CCC(COc2ccc(-c3ccc(C(=O)N4C[C@H](O)C[C@@]4(C)C(N)=O)c(F)c3)cn2)CC1)C(F)(F)F [Compound 1295, (2S,4R)-1-(2-fluoro-4-(6-((1-(3,3,3-trifluoro-2,2-dimethylpropyl)piperidin-4-yl)methoxy)pyridin-3-yl)benzoyl)-4-hydroxy-2-methylpyrrolidin-2-carboxamide] | 18 nM | excellent activity
8 | CC(C)(F)CN1CCC(COc2cnc(-c3ccc(C(=O)N4CCC[C@@]4(C)C(N)=O)c(F)c3)nc2)CC1 [Compound 1206, (S)-1-(2-fluoro-4-(5-((1-(2-fluoro-2-methylpropyl)piperidin-4-yl)methoxy)pyrimidin-2-yl)benzoyl)-2-methylpyrrolidin-2-carboxamide] | 9 nM | –
9 | CCC(F)(F)CN1CCC(COc2ccc(-c3ccc(C(=O)N4CCC[C@H]4C(N)=O)c(F)c3)cn2)CC1 [Compound 1238, (S)-1-(4-(6-((1-(2,2-difluorobutyl)piperidin-4-yl)methoxy)pyridin-3-yl)-2-fluorobenzoyl)pyrrolidin-2-carboxamide] | 0.9 nM | –
10 | CC(C)(F)CN1CCC(COc2ccc(-c3ccc(C(=O)N4CCC[C@@]4(C)C(N)=O)c(F)c3)cc2C#N)CC1 [Compound 1259, (S)-1-(3′-cyano-3-fluoro-4′-((1-(2-fluoro-2-methylpropyl)piperidin-4-yl)methoxy)biphenylcarbonyl)-2-methylpyrrolidin-2-carboxamide] | 5 nM | –
11 | C[C@@]1(C(N)=O)C[C@@H](O)CN1C(=O)c1ccc(-c2ccc(OCC3CCN(CC4(C(F)(F)F)CCC4)CC3)cc2)c(F)c1 [Compound 1258, (2S,4R)-1-(2-fluoro-4′-((1-((1-(trifluoromethyl)cyclobutyl)methyl)piperidin-4-yl)methoxy)biphenylcarbonyl)-4-hydroxy-2-methylpyrrolidin-2-carboxamide] | 1 nM | –

Now from value to compound:

Row | EC50 | activity for human GPR119 receptor (in words) | Compound
12 | 4 nM | excellent activity | C[C@@]1(C(N)=O)CCCN1C(=O)c1ccc(-c2ccc(OCC3CCN(CC4(C(F)(F)F)CCC4)CC3)cn2)cc1F [Compound 1297, (S)-1-(2-fluoro-4-(5-((1-((1-(trifluoromethyl)cyclobutyl)methyl)piperidin-4-yl)methoxy)pyridin-2-yl)benzoyl)-2-methylpyrrolidin-2-carboxamide]
13 | 0.2 nM | excellent activity | NC(=O)[C@@H]1[C@@H](O)CCN1C(=O)c1ccc(-c2cnc(OCC3CCN(CC4(C(F)(F)F)CCC4)CC3)cn2)c(F)c1 [Compound 1253, (2S,3S)-1-(3-fluoro-4-(5-((1-((1-(trifluoromethyl)cyclobutyl)methyl)piperidin-4-yl)methoxy)pyrazin-2-yl)benzoyl)-3-hydroxypyrrolidin-2-carboxamide]
14 | 0.09 nM | – | NC(=O)[C@@H]1C[C@H](F)CN1C(=O)c1ccc(-c2cnc(OCC3CCN(CC4(C(F)(F)F)CCC4)CC3)cn2)cc1 [Compound 1209, (2S,4S)-4-fluoro-1-(4-(5-((1-((1-(trifluoromethyl)cyclobutyl)methyl)piperidin-4-yl)methoxy)pyrazin-2-yl)benzoyl)pyrrolidin-2-carboxamide]
15 | 0.8 nM | excellent activity | NC(=O)C1CC(O)CCN1C(=O)c1ccc(-c2cnc(OCC3CCN(CC4(C(F)(F)F)CCC4)CC3)cn2)cc1F (centres unmarked) [Compound 1262, 1-(2-fluoro-4-(5-((1-((1-(trifluoromethyl)cyclobutyl)methyl)piperidin-4-yl)methoxy)pyrazin-2-yl)benzoyl)-4-hydroxypiperidin-2-carboxamide]
16 | 0.05 nM | excellent activity | NC(=O)[C@@H]1C[C@@H](O)CN1C(=O)c1ccc(-c2ccc(OCC3CCN(CC(F)(F)C(F)(F)F)CC3)cn2)cc1F [Compound 1265, (2S,4R)-1-(2-fluoro-4-(5-((1-(2,2,3,3,3-pentafluoropropyl)piperidin-4-yl)methoxy)pyridin-2-yl)benzoyl)-4-hydroxypyrrolidin-2-carboxamide]
17 | 0.8 nM | excellent activity | NC(=O)[C@@H]1C[C@@H](O)CN1C(=O)c1ccc(-c2cnc(OCC3CCN(CC4(C(F)(F)F)CCC4)CC3)cn2)cc1F [Compound 1200, (2S,4R)-1-(2-fluoro-4-(5-((1-((1-(trifluoromethyl)cyclobutyl)methyl)piperidin-4-yl)methoxy)pyrazin-2-yl)benzoyl)-4-hydroxypyrrolidin-2-carboxamide]
18 | 50 nM | – | C[C@@]1(C(N)=O)C[C@@H](O)CN1C(=O)c1ccc(-c2ccc(OCC3CCN(CC4(C(F)(F)F)CCC4)CC3)nc2)cc1F [Compound 1326, (2S,4R)-1-(2-fluoro-4-(6-((1-((1-(trifluoromethyl)cyclobutyl)methyl)piperidin-4-yl)methoxy)pyridin-3-yl)benzoyl)-4-hydroxy-2-methylpyrrolidin-2-carboxamide]
